Experimental data as given in patent US9932333B2, “Benzothiazole compound and medicine containing same” (JAPAN SCIENCE AND TECHNOLOGY AGENCY, priority 2014, dated 2018).
pKd: −log10 of the molar value.

Assays:
[1] = biological target: Aβ1-42 aggregated in advance (Homo sapiens, UniProt P05067); assay: Aβ affinity (Kd association curve from fluorescence intensity); type: binding; conditions: aggregated Aβ1-42 0.5 μM, phosphate buffer pH 7.4, room temperature 1 hour
Source text: For compound (1a), the excitation wavelength was set to 460 nm, and the fluorescence wavelength was set to 515 nm. A Kd association curve was obtained from the fluorescence intensity using KaleidaGraph 4.5 (Synergy Software, Reading, Pa.).

angiotensin IV = angiotensin IV (Homo sapiens, UniProt P01019); assay: Oxidation reaction of angiotensin IV (Example 3); type: biochemical; conditions: light irradiation 1.5 hours, neutral buffer, 37° C.
Source text: (§1) Then, the reaction was monitored with a mass spectrometer (MALDI-TOF MS) or LC/MS (ESI-Q).

methionine enkephalin = methionine enkephalin (Homo sapiens, UniProt P01210); assay: Oxidation reaction of methionine enkephalin (Example 3); type: biochemical; conditions: light irradiation 1.5 hours, neutral buffer, 37° C.
Source text: as §1

amylin = biological target: T1, amylin (Homo sapiens, UniProt P10997); assay: Oxidation reaction of amylin; type: biochemical; conditions: pre-incubation 0 h
T1 construct: amylin, a hormone essential for glycemic control
T1 sequence (P10997 34-70 limits assumed): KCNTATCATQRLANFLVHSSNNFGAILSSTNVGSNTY
Protocol: as §1
The amino acid analysis of oxidized Aβ1-42 and oxidized amylin (carried out by Peptide Institute, Inc.) was conducted. The oxidized Aβ1-42 and the oxidized amylin were enzymatically digested with endopeptidase Lys-C and chymotrypsin, respectively, and the obtained digests were analyzed with a mass spectrometer (MALD-TOF MS) and LC/MS/MS (ESI-Q-TOF).

Aβ1-42 aggregated in advance, sequence (P05067 672-713 limits assumed): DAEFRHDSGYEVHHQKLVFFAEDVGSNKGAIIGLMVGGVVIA

Row | pKd [1] | oxygenation of angiotensin IV (angiotensin IV) | oxygenation of methionine enkephalin (methionine enkephalin) | SMILES | oxygenation of amylin in a monomeric state (amylin)
1 | 5.96 | – | – | C[n+]1c(-c2cc3c4c(c2)CCCN4CCC3)sc2cc(Br)ccc21 [compound (1a)] | –
2 | – | approximately 40% | ~60% | Cc1cc2nc3c(=O)[nH]c(=O)nc-3n(C[C@H](O)[C@H](O)[C@H](O)CO)c2cc1C [riboflavin, reference compound] | high oxidative activity against monomeric amylin
